From patent publication US7582645B2, “Pyrimidine derivatives for treatment of hyperproliferative disorders” (Bayer Pharmaceuticals Corporation, priority 2003, dated 2009)

What follows are compounds tested on HCT116 cells (assay: HCT116 cytotoxic activity assay (Alamar Blue, 72 h)). Conditions: Homo sapiens, HCT-116, 72 h compound exposure, greater than 500 nM but less than or equal to 2 μM.
Format: cell-based
Procedure: Representative compounds of this invention were tested for cytotoxicity using the above-described assay procedure with the following results: […]

| SMILES | IC50 [nM] |
| --- | --- |
| N#Cc1cc(Oc2ccc(Nc3cc(-c4cc(F)cc(F)c4)nc(N)n3)cc2)ccn1 [Example 276, 4-(4-{[2-amino-6-(3,5-difluorophenyl)pyrimidin-4-yl]amino}phenoxy)pyridine-2-carbonitrile] | 500 to 2000 |
| NC(=O)c1cc(Oc2ccc(Nc3cc(-c4cc(F)cc(F)c4)nc(N)n3)cc2)ccn1 [Example 279, 4-(4-{[2-amino-6-(3,5-difluorophenyl)pyrimidin-4-yl]amino}phenoxy)pyridine-2-carboxamide] | 500 to 2000 |
| NC(=O)c1cc(Oc2cccc(Nc3cc(-c4cccc(OCc5ccccc5)c4)nc(N)n3)c2)ccn1 [Example 281, 4-[3-({2-amino-6-[3-(benzyloxy)phenyl]pyrimidin-4-yl}amino)phenoxy]pyridine-2-carboxamide] | 500 to 2000 |
| NC(=O)c1cc(Oc2cccc(Nc3cc(-c4cccc(N)c4)nc(N)n3)c2)ccn1 [Example 283, 4-(3-{[2-amino-6-(3-aminophenyl)pyrimidin-4-yl]amino}phenoxy) pyridine-2-carboxamide] | 500 to 2000 |
| COc1ccc(-c2cc(Nc3cccc(Oc4ccnc(C(N)=O)c4)c3)nc(N)n2)cn1 [Example 284, 4-(3-{[2-amino-6-(6-methoxypyridin-3-yl)pyrimidin-4-yl]amino}phenoxy) pyridine-2-carboxamide] | 500 to 2000 |
| NC(=O)c1cc(Oc2cccc(Nc3cc(-c4ccccc4F)nc(N)n3)c2)ccn1 [Example 286, 4-(3-{[2-amino-6-(2-fluorophenyl)pyrimidin-4-yl]amino}phenoxy) pyridine-2-carboxamide] | 500 to 2000 |
| COc1ccccc1-c1cc(Nc2cccc(Oc3ccnc(C(N)=O)c3)c2)nc(N)n1 [Example 291, 4-(3-{[2-amino-6-(2-methoxyphenyl)pyrimidin-4-yl]amino}phenoxy) pyridine-2-carboxamide] | 500 to 2000 |
| N#CCc1ccc(-c2cc(Nc3cccc(Oc4ccnc(C(N)=O)c4)c3)nc(N)n2)cc1 [Example 294, 4-[3-({2-amino-6-[4-(cyanomethyl)phenyl]pyrimidin-4-yl}amino)phenoxy]pyridine-2-carboxamide] | 500 to 2000 |
| NC(=O)c1cc(Oc2cccc(Nc3cc(-c4cccnc4)nc(N)n3)c2)ccn1 [Example 297, 4-{3-[(2-amino-6-pyridin-3-ylpyrimidin-4-yl)amino]phenoxy} pyridine-2-carboxamide] | 500 to 2000 |
| COc1ccc(OC)c(-c2cc(Nc3cccc(Oc4ccnc(C(N)=O)c4)c3)nc(N)n2)c1 [Example 300, 4-(3-{[2-amino-6-(2,5-dimethoxyphenyl)pyrimidin-4-yl]amino}phenoxy)pyridine-2-carboxamide] | 500 to 2000 |
| Cc1cc(Oc2ccc(Nc3cc(-c4ccc(Oc5ccccc5)cc4)nc(N)n3)cc2)ccn1 [Example 304, N4*-{4-[(2-methylpyridin-4-yl)oxy]phenyl}-6-(4-phenoxyphenyl) pyrimidine-2,4-diamine] | 500 to 2000 |
| Cc1cc(Oc2ccc(Nc3cc(-c4cccc(O)c4)nc(N)n3)cc2)ccn1 [Example 306, 3-[2-amino-6-({4-[(2-methylpyridin-4-yl)oxy]phenyl}amino)pyrimidin-4-yl]phenol] | 500 to 2000 |

Same assay, conditions: Homo sapiens, HCT-116, 72 h compound exposure, greater than 2 μM

| SMILES | IC50 [nM] |
| --- | --- |
| CC(C)c1cccc(-c2cc(Nc3ccc(Oc4ccnc(C(N)=O)c4)cc3)nc(N)n2)c1 [Example 270, 4-(4-{[2-amino-6-(3-isopropylphenyl)pyrimidin-4-yl]amino}phenoxy) pyridine-2-carboxamide] | > 2000 |
| NC(=O)c1cc(Oc2ccc(Nc3cc(-c4ccc(Cl)c(Cl)c4)nc(N)n3)cc2)ccn1 [Example 272, 4-(4-{[2-amino-6-(3,4-dichlorophenyl)pyrimidin-4-yl]amino}phenoxy)pyridine-2-carboxamide] | > 2000 |
| N#Cc1cc(Oc2ccc(Nc3cc(-c4cccc(OC(F)(F)F)c4)nc(N)n3)cc2)ccn1 [Example 274, 4-[4-({2-amino-6-[3-(trifluoromethoxy)phenyl]pyrimidin-4-yl}amino)phenoxy]pyridine-2-carbonitrile] | > 2000 |
| NC(=O)c1cc(Oc2ccc(Nc3cc(-c4cccc(OC(F)(F)F)c4)nc(N)n3)cc2)ccn1 [Example 277, 4-[4-({2-amino-6-[3-(trifluoromethoxy)phenyl]pyrimidin-4-yl}amino)phenoxy]pyridine-2-carboxamide] | > 2000 |
| NC(=O)c1cc(Oc2cccc(Nc3cc(-c4ccc(-c5ccccc5)cc4)nc(N)n3)c2)ccn1 [Example 280, 4-{3-[(2-amino-6-biphenyl-4-ylpyrimidin-4-yl)amino]phenoxy} pyridine-2-carboxamide] | > 2000 |
| NC(=O)c1cc(Oc2cccc(Nc3cc(-c4cccc(F)c4)nc(N)n3)c2)ccn1 [Example 285, 4-(3-{[2-amino-6-(3-fluorophenyl)pyrimidin-4-yl]amino}phenoxy) pyridine-2-carboxamide] | > 2000 |
| CN(C)c1ccc(-c2cc(Nc3cccc(Oc4ccnc(C(N)=O)c4)c3)nc(N)n2)cc1 [Example 287, 4-[3-({2-amino-6-[4-(dimethylamino)phenyl]pyrimidin-4-yl}amino)phenoxy]pyridine-2-carboxamide] | > 2000 |
| COc1ccc(C(C)C)cc1-c1cc(Nc2cccc(Oc3ccnc(C(N)=O)c3)c2)nc(N)n1 [Example 289, 4-(3-{[2-amino-6-(5-isopropyl-2-methoxyphenyl)pyrimidin-4-yl]amino}phenoxy)pyridine-2-carboxamide] | > 2000 |
| CC(C)c1ccc(-c2cc(Nc3cccc(Oc4ccnc(C(N)=O)c4)c3)nc(N)n2)cc1 [Example 293, 4-(3-{[2-amino-6-(4-isopropylphenyl)pyrimidin-4-yl]amino}phenoxy) pyridine-2-carboxamide] | > 2000 |
| Cc1ccc(-c2cc(Nc3cccc(Oc4ccnc(C(N)=O)c4)c3)nc(N)n2)cc1 [Example 295, 4-(3-{[2-amino-6-(4-methylphenyl)pyrimidin-4-yl]amino}phenoxy) pyridine-2-carboxamide] | > 2000 |
| CC(C)c1cccc(-c2cc(Nc3cccc(Oc4ccnc(C(N)=O)c4)c3)nc(N)n2)c1 [Example 299, 4-(3-{[2-amino-6-(3-isopropylphenyl)pyrimidin-4-yl]amino}phenoxy) pyridine-2-carboxamide] | > 2000 |
| NC(=O)c1cc(Oc2cccc(Nc3cc(-c4ccc[nH]4)nc(N)n3)c2)ccn1 [Example 301, 4-(3-{[2-amino-6-(1H-pyrrol-2-yl)pyrimidin-4-yl]amino}phenoxy) pyridine-2-carboxamide] | > 2000 |
| NC(=O)c1cc(Oc2cccc(Nc3cc(-c4ccc(Cl)c(Cl)c4)nc(N)n3)c2)ccn1 [Example 303, 4-(3-{[2-amino-6-(3,4-dichlorophenyl)pyrimidin-4-yl]amino}phenoxy)pyridine-2-carboxamide] | > 2000 |
| Cc1cc(Oc2ccc(Nc3cc(-c4ccc(OC(F)(F)F)cc4)nc(N)n3)cc2)ccn1 [Example 307, N4*-{4-[(2-methylpyridin-4-yl)oxy]phenyl}-6-[4-(trifluoromethoxy)phenyl]pyrimidine-2,4-diamine] | > 2000 |

Same assay, conditions: Homo sapiens, HCT-116, 72 h compound exposure, less than or equal to 500 nM

| SMILES | IC50 [nM] |
| --- | --- |
| Cc1ccc(-c2cc(Nc3ccc(Oc4ccnc(C(N)=O)c4)cc3)nc(N)n2)cc1N [Example 271, 4-(4-{[2-amino-6-(3-amino-4-methylphenyl)pyrimidin-4-yl]amino}phenoxy)pyridine-2-carboxamide] | ≤ 500 |
| CCOc1cccc(-c2cc(Nc3ccc(Oc4ccnc(C(N)=O)c4)cc3)nc(N)n2)c1 [Example 273, 4-(4-{[2-amino-6-(3-ethoxyphenyl)pyrimidin-4-yl]amino}phenoxy) pyridine-2-carboxamide] | ≤ 500 |
| N#Cc1cc(Oc2ccc(Nc3cc(-c4ccccc4OC(F)(F)F)nc(N)n3)cc2)ccn1 [Example 275, 4-[4-({2-amino-6-[2-(trifluoromethoxy)phenyl]pyrimidin-4-yl}amino)phenoxy]pyridine-2-carbonitrile] | ≤ 500 |
| NC(=O)c1cc(Oc2ccc(Nc3cc(-c4ccccc4OC(F)(F)F)nc(N)n3)cc2)ccn1 [Example 278, 4-[4-({2-amino-6-[2-(trifluoromethoxy)phenyl]pyrimidin-4-yl}amino)phenoxy]pyridine-2-carboxamide] | ≤ 500 |
| Cc1cc(Oc2ccc(Nc3cc(-c4ccc(F)cc4)nc(N)n3)cc2)ccn1 [Example 282, 6-(4-fluorophenyl)-N4*-{4-[(2-methylpyridin-4-yl)oxy]phenyl} pyrimidine-2,4-diamine] | ≤ 500 |
| CCc1cccc(-c2cc(Nc3cccc(Oc4ccnc(C(N)=O)c4)c3)nc(N)n2)c1 [Example 288, 4-(3-{[2-amino-6-(3-ethylphenyl)pyrimidin-4-yl]amino}phenoxy) pyridine-2-carboxamide] | ≤ 500 |
| Cc1ccccc1-c1cc(Nc2cccc(Oc3ccnc(C(N)=O)c3)c2)nc(N)n1 [Example 290, 4-(3-{[2-amino-6-(2-methylphenyl)pyrimidin-4-yl]amino}phenoxy) pyridine-2-carboxamide] | ≤ 500 |
| COc1cccc(-c2cc(Nc3cccc(Oc4ccnc(C(N)=O)c4)c3)nc(N)n2)c1 [Example 292, 4-(3-{[2-amino-6-(3-methoxyphenyl)pyrimidin-4-yl]amino}phenoxy) pyridine-2-carboxamide] | ≤ 500 |
| Cc1cccc(-c2cc(Nc3cccc(Oc4ccnc(C(N)=O)c4)c3)nc(N)n2)c1 [Example 296, 4-(3-{[2-amino-6-(3-methylphenyl)pyrimidin-4-yl]amino}phenoxy) pyridine-2-carboxamide] | ≤ 500 |
| NC(=O)c1cc(Oc2cccc(Nc3cc(-c4ccsc4)nc(N)n3)c2)ccn1 [Example 298, 4-(3-{[2-amino-6-(3-thienyl)pyrimidin-4-yl]amino}phenoxy) pyridine-2-carboxamide] | ≤ 500 |
| Cc1ccc(-c2cc(Nc3cccc(Oc4ccnc(C(N)=O)c4)c3)nc(N)n2)cc1N [Example 302, 4-(3-{[2-amino-6-(3-amino-4-methylphenyl)pyrimidin-4-yl]amino}phenoxy)pyridine-2-carboxamide] | ≤ 500 |
| Cc1cc(Oc2ccc(Nc3cc(-c4cccc(N(C)C)c4)nc(N)n3)cc2)ccn1 [Example 305, 6-[3-(dimethylamino)phenyl]-N4*- {4-[(2-methylpyridin-4-yl)oxy]phenyl}pyrimidine-2,4-diamine] | ≤ 500 |
